Earlier results in patent US6534540B2, “Combination and method of treatment of cancer utilizing a COX-2 inhibitor and a 3-hydroxy-3-methylglutaryl-coenzyme-a (HMG-CoA) reductase inhibitor” (priority 2000, dated 2003).

Assays:
[1] = test system: prostate cancer specimen; conditions: mice, prostate cancer specimen in vivo
[2] = test system: Prostate Cancer Cell Line LNCaP
[3] = biological target: T1, COX-2 (Mus musculus, UniProt Q05769); conditions: in vivo
T1 sequence (Q05769 18-604): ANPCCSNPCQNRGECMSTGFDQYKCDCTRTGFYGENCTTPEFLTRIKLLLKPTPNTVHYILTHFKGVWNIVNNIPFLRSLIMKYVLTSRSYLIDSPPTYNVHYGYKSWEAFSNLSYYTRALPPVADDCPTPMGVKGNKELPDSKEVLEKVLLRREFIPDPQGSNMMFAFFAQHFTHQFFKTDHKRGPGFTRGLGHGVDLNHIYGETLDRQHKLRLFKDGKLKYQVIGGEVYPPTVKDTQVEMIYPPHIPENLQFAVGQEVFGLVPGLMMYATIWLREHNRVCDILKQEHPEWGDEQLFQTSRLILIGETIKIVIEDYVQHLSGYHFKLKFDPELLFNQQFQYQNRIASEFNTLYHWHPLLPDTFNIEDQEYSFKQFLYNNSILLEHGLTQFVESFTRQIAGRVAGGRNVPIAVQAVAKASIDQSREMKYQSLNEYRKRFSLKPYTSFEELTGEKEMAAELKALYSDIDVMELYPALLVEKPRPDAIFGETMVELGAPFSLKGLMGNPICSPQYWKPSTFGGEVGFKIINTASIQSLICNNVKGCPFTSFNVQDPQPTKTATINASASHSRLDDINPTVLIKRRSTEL

CS(=O)(=O)Nc1ccc([N+](=O)[O-])cc1OC1CCCCC1 [NS398]
angiogenesis [1]: inhibit angiogenesis

CC[C@H](C)C(=O)O[C@H]1C[C@@H](C)C=C2C=C[C@H](C)[C@H](CC[C@@H]3C[C@@H](O)CC(=O)O3)[C@H]21 [lovastatin]
therapeutic value in prostate cancer [2]: had therapeutic value in treating prostate cancer

COc1cc(C2Oc3cc([C@H]4Oc5cc(O)cc(O)c5C(=O)[C@@H]4O)ccc3OC2CO)ccc1O (stereo partly drawn) [silybinin]
COX-2 inhibition relative to COX-1 inhibition [3]: significant COX-2 inhibition relative to COX-1 inhibition
